Broadly, the inhibition is the relative decrease from the control value, in per cent. A word on the Ki: it is the dissociation constant of the complex between target and ligand, obtained from inhibition or displacement.

Here are results for six compounds from patent US20100204182A1, “ECTONUCLEOTIDASE INHIBITORS” (RHEINISCHE FRIEDRICH-WILHELMS-UNIVERSITAT BONN, priority 2006, published 2010).

Series [1] addresses rP2Y6 (Rattus norvegicus, UniProt Q63371). As to the kind of experiment: Inhibition of UDP binding at rP2Y6. The conditions noted are these: read-out: rP2Y6 % inhibition of UDP binding at 100 μM, n = 3, mean ± SEM.
Series [2] concerns the target T1, human NTPDase2 (Homo sapiens, UniProt Q9Y5L3).
T1 sequence (Q9Y5L3 1-495): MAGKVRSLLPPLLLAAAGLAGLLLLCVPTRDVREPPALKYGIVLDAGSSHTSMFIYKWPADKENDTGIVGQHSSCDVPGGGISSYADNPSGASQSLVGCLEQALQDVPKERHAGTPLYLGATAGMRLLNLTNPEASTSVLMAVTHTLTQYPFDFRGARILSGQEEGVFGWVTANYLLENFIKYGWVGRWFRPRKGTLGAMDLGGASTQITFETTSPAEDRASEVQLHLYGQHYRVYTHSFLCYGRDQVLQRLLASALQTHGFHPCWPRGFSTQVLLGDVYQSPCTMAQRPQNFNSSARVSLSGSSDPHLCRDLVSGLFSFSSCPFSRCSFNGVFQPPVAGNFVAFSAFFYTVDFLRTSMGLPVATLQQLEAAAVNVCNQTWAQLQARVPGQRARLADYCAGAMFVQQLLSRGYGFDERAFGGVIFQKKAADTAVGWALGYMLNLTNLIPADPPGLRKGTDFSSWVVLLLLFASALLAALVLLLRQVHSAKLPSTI
As to the kind of experiment: NTPDase inhibition assay by capillary electrophoresis (CE), NTPDase2. Format: biochemical. Conditions: for inhibition at 1000 µM: read-out: NTPDase2 inhibition (%) at 1 mM.

The target of series [3] is hP2Y4 (Homo sapiens, UniProt P51582). The experiment in a line: Inhibition of UTP binding at hP2Y4. Conditions: read-out: hP2Y4 % inhibition of UTP binding at 100 μM, n = 3, mean ± SEM. The protocol:
(§1) In table 2 inhibition data of selected examples at human P2Y receptor subtypes were collected. It can be seen that no compound was identified that inhibited P2Y receptors at high concentrations of 100 μM and 10 μM, respectively.

Series [4] has as its target T2, human NTPDase1 (Homo sapiens, UniProt P49961).
T2 sequence (P49961 1-510): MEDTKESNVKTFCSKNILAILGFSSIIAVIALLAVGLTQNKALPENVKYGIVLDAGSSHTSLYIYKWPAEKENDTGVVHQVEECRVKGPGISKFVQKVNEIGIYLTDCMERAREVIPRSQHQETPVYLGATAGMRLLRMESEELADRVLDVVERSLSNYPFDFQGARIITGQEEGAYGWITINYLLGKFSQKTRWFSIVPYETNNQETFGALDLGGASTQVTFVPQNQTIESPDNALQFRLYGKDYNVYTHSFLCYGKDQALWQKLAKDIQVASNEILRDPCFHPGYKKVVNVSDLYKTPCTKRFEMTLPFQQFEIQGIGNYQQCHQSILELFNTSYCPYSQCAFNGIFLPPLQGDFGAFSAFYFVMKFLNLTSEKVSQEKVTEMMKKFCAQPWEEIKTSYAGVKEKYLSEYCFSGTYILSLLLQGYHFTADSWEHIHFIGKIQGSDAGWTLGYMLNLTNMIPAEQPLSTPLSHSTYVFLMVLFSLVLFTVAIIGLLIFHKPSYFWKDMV
The experiment in a line: NTPDase inhibition assay by capillary electrophoresis (CE), NTPDase1. Conditions: CE method, ATP 320 μM, Km 17 μM, read-out: NTPDase1 Ki [μM] ± SEM. Format: biochemical. In outline: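 Recombinant or native human NTPDase was run with 320 μM ATP in Hepes buffer pH 7.4 (NaCl, KCl, MgCl2, CaCl2) at 37° C for 15 min, stopped by heating at 99° C. Products were quantified by capillary electrophoresis (UV 210 nm, UMP internal standard). IC50 from 6-8 concentrations was converted to Ki by Cheng-Prusoff.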

Series [5] addresses hP2Y12 (Homo sapiens, UniProt Q9H244). The experiment in a line: Inhibition of [3H]PSB-0413 binding at hP2Y12. The conditions noted are these: mean ± SEM, read-out: hP2Y12 % Inhibition of [^3H]PSB-0413 Binding at 10 μM, n = 3. The protocol:
as §1

Series [6] addresses hP2Y2 (Homo sapiens, UniProt P41231). As to the kind of experiment: Inhibition of UTP binding at hP2Y2. Conditions: read-out: hP2Y2 % inhibition of UTP binding at 100 μM, n = 3, mean ± SEM. The protocol: as §1
Series [7] has as its target T3, rat NTPDase1 (Rattus norvegicus, UniProt P97687).
T3 sequence (P97687 1-511): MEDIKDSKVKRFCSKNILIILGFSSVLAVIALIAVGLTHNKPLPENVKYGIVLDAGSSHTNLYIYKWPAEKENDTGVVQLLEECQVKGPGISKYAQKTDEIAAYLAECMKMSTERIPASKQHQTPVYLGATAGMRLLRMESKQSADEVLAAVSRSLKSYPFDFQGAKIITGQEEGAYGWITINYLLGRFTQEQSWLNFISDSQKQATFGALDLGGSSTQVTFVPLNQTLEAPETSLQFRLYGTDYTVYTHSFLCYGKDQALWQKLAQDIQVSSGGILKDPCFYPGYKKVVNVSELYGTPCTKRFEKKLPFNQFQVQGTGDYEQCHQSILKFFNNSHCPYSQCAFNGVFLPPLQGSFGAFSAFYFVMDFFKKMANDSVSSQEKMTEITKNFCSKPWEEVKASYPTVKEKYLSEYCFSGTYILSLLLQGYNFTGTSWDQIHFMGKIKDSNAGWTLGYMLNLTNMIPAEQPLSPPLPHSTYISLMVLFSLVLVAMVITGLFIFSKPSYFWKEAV
The experiment in a line: Rat NTPDase1 inhibition, in-capillary electrophoresis method (standard compounds). The conditions noted are these: read-out: NTPDase1 Ki ± SEM. The class given is biochemical.

For series [8], the target named is T4, rat NTPDase2 (Rattus norvegicus, UniProt O35795).
T4 sequence (O35795 1-495): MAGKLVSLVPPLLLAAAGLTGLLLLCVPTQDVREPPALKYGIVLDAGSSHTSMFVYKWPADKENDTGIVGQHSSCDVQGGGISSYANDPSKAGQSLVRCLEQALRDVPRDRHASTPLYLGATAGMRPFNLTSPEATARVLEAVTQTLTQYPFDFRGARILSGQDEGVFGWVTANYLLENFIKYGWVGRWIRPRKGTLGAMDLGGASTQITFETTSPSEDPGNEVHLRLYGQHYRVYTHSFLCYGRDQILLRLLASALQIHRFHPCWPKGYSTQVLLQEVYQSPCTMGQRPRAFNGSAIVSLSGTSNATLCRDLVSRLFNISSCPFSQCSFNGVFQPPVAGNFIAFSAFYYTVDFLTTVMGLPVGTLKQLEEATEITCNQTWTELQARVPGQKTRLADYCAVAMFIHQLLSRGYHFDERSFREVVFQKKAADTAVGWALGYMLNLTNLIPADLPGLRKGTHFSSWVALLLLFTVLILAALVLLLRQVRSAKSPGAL
The experiment in a line: Rat NTPDase2 inhibition, in-capillary electrophoresis method (standard compounds). Format: biochemical. The conditions noted are these: read-out: NTPDase2 Ki ± SEM.

Series [9] concerns ecto-nucleotide pyrophosphatases (E-NPP). The conditions noted are these: in words; cited from earlier work.
Series [10] deals with T5, rat NTPDase3 (Rattus norvegicus, UniProt A6I415).
T5 sequence (A6I415 1-529): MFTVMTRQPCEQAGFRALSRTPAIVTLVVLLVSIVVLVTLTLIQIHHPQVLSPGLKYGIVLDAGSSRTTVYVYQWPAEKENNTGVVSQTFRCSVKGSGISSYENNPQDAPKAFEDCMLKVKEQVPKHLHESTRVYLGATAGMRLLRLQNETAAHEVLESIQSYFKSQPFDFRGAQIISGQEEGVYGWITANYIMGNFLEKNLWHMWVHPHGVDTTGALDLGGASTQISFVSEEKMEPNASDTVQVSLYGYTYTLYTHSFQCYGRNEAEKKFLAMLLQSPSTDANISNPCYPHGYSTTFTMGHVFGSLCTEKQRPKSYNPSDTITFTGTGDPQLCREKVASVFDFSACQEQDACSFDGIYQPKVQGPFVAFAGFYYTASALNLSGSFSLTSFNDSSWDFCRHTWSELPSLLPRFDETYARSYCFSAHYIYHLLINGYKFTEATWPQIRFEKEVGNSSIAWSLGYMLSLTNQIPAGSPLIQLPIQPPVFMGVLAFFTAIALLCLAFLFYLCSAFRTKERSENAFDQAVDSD
As to the kind of experiment: Rat NTPDase3 inhibition, in-capillary electrophoresis method (standard compounds). The class given is biochemical. The conditions noted are these: read-out: NTPDase3 Ki ± SEM.

For series [11], the target named is P2Y6 (Homo sapiens, UniProt Q15077). As to the kind of experiment: Potency of standard compounds at P2Y6 receptor. The conditions noted are these: for Ki: standard compounds, SEM not given.
Sequence of P2Y6 (Q15077 whole entry, species assumed): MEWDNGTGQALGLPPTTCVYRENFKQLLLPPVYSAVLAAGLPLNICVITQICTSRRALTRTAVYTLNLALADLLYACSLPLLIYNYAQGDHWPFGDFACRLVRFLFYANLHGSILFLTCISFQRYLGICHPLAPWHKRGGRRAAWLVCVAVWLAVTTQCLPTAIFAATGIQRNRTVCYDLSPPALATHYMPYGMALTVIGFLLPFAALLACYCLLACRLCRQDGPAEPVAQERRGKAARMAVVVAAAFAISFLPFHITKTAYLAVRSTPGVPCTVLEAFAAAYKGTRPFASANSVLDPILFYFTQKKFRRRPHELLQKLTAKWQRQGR
Series [12] addresses P2Y2 (Homo sapiens, UniProt P41231). As to the kind of experiment: Potency of standard compounds at P2Y2 receptor. The conditions noted are these: SEM not given.
For series [13], the target named is P2Y4 (Homo sapiens, UniProt P51582). As to the kind of experiment: Potency of standard compounds at P2Y4 receptor.
Sequence of P2Y4 (P51582 whole entry, species assumed): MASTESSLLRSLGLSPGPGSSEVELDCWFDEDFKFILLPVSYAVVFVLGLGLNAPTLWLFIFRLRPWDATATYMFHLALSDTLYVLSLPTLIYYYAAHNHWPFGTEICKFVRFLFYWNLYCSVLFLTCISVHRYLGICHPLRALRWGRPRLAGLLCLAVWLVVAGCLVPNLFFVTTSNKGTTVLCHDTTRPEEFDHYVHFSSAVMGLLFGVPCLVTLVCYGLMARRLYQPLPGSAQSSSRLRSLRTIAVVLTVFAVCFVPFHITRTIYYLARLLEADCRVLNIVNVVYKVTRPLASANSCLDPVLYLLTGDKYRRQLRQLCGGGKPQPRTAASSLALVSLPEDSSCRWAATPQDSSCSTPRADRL
Series [14] concerns the target P2X1 (Homo sapiens, UniProt P51575). The conditions noted are these: standard inhibitors; reference mark 15; read-out: P2X1 Ki ± SEM; cited from earlier work.
For series [15], the target named is P2X2 (Homo sapiens, UniProt Q9UBL9). The conditions noted are these: standard inhibitors; reference mark 15; read-out: P2X2 Ki ± SEM; cited from earlier work.
Sequence of P2X2 (Q9UBL9 whole entry, species assumed): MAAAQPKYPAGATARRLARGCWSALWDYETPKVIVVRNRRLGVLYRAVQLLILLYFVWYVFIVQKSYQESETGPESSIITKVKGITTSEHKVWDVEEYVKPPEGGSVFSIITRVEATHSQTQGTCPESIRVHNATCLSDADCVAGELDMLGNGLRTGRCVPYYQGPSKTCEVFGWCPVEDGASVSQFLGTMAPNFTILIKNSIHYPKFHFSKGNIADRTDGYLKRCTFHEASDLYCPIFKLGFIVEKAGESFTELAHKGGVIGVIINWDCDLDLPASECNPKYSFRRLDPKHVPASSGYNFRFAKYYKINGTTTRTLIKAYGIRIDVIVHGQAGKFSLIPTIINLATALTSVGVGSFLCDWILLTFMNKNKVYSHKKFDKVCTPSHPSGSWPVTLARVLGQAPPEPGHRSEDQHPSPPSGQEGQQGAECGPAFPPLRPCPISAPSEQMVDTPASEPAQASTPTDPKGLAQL
In series [16] the target is P2Y12 (Homo sapiens, UniProt Q9H244). The experiment in a line: Potency of standard compounds at P2Y12 receptor. Conditions: SEM not given.
Sequence of P2Y12 (Q9H244 whole entry, species assumed): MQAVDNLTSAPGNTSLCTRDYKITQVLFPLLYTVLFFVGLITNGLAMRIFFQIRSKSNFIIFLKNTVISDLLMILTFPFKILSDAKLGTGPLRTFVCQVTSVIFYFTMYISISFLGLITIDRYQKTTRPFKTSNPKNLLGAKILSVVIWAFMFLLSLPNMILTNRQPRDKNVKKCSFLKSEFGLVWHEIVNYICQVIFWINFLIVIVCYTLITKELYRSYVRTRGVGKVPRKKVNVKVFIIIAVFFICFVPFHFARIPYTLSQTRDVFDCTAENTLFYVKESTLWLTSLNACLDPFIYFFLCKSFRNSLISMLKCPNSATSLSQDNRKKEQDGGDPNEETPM
The target of series [17] is P2X3 (Homo sapiens, UniProt P56373). Conditions: standard inhibitors; reference mark 15; read-out: P2X3 Ki ± SEM; cited from earlier work.
Sequence of P2X3 (P56373 whole entry, species assumed): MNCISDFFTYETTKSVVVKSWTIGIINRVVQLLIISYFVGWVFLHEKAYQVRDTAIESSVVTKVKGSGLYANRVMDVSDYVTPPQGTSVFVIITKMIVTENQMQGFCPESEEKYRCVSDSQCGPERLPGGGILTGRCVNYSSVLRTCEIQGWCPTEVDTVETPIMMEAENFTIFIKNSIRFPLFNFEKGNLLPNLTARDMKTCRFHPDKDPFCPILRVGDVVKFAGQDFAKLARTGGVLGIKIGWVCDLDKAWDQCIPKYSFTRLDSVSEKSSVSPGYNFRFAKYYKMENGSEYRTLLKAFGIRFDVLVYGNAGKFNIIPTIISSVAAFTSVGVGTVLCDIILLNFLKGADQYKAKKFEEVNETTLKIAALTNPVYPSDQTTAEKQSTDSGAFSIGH
Series [18] addresses P2X5 (Homo sapiens, UniProt Q93086). The conditions noted are these: standard inhibitors; reference mark 15; read-out: P2X5 Ki ± SEM; cited from earlier work.
The mark [19] stands for this setting: standard compounds, SEM not given.

Sequence of P2Y2 (P41231 whole entry, species assumed): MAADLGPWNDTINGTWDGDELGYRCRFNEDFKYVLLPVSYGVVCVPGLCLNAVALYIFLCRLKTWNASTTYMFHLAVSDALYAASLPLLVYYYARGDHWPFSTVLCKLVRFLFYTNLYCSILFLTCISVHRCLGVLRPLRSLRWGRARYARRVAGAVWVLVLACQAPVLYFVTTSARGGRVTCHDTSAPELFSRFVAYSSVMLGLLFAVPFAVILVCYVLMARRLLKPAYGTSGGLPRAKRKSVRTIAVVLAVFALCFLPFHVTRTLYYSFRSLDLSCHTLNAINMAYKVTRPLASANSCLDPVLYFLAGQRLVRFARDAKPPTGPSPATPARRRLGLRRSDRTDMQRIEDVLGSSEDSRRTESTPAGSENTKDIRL
Sequence of hP2Y4 (P51582 whole entry): as the sequence (P51582 whole entry, species assumed) above
Sequence of P2X5 (Q93086 whole entry, species assumed): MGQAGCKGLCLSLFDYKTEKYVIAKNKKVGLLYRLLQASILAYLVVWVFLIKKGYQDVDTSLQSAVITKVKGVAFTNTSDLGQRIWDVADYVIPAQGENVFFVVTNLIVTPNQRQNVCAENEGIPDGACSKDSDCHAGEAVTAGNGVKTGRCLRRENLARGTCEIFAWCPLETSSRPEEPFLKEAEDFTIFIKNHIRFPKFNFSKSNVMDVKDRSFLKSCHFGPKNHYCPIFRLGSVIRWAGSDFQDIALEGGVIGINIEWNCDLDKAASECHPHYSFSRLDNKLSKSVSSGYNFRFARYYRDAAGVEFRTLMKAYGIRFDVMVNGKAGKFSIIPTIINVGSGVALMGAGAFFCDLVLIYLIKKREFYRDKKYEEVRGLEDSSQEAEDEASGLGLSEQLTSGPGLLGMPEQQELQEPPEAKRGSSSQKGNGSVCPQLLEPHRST
Sequence of rP2Y6 (Q63371 whole entry): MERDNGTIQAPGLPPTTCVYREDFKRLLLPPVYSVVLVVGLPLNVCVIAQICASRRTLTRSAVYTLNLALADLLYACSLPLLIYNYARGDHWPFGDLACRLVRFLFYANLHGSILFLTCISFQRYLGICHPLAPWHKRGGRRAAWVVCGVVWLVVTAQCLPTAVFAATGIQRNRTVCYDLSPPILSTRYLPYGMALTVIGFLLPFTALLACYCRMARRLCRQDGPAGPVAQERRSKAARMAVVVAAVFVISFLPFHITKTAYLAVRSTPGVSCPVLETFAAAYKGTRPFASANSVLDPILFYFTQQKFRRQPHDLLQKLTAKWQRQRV
Sequence of hP2Y12 (Q9H244 whole entry): as the sequence (Q9H244 whole entry, species assumed) above
Sequence of P2X1 (P51575 whole entry, species assumed): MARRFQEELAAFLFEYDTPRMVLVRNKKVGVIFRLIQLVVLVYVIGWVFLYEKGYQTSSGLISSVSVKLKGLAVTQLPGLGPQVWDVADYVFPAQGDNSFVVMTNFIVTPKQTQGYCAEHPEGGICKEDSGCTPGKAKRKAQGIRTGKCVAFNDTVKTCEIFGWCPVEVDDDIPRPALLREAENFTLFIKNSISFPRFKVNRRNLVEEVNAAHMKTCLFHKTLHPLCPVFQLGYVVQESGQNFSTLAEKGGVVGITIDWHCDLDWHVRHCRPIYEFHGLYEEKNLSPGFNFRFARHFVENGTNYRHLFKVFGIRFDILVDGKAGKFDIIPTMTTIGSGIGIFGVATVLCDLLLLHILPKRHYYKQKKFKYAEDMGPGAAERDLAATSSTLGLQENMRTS
Sequence of hP2Y2 (P41231 whole entry): as the sequence (P41231 whole entry, species assumed) above

Regarding `CCOP(=O)(OCC)C(NC(=O)CCNC(=O)[C@H]1O[C@@H](n2ccc(=O)[nH]c2=O)C(O)C1O)P(=O)(OCC)OCC` (stereo in doubt) [Compound 11, 3-[(2S,3R,4S,5R)-5-(2,4-Dioxo-3,4-dihydropyrimidin-1(2H)-yl)-3,4-dihydroxy-tetrahydrofurane-2-carboxamido]propaneamidomethylenediphosphonic acid tetraethylester], the results for the inhibition at 100 µM in [1], in series [3] and in series [6] were 14 ± 2%, 7 ± 20% and -12 ± 24%, respectively. In addition, the Ki in [2] was approximately 175 µM; in series [4], 325 ± 25 µM. For the same compound, the inhibition at 1000 µM in series [2] is 51%. Besides, in series [5], the inhibition at 10 µM was determined as 1 ± 5%.

Regarding `CCOP(=O)(OCC)C(NC(=O)CCCNC(=O)[C@H]1O[C@@H](n2ccc(=O)[nH]c2=O)C(O)C1O)P(=O)(OCC)OCC` (stereo in doubt) [Compound 12, 4-[(2S,3R,4S,5R)-5-(2,4-Dioxo-3,4-dihydropyrimidin-1(2H)-yl)-3,4-dihydroxytetrahydrofurane-2-carboxamido]butaneamidomethylenediphosphonic acid tetraethylester], the inhibition at 100 µM in series [1] is 18 ± 4%; in series [3] it was 27 ± 7%; in series [6] it was -44 ± 20%. Besides, the Ki is approximately 165 µM in series [2] and 32.4 ± 1.1 µM in series [4]. The inhibition at 1000 µM in [2] stood at 54%. The inhibition at 10 µM in series [5] came to 1 ± 5%.

As to `CCN(CC)c1ncnc2c1ncn2C1OC(COP(=O)(O)OP(=O)(O)C(Br)(Br)P(=O)(O)O)C(O)C1O` (stereo not drawn) [ARL67156, N^6-Diethyl-β,γ-dibromomethylene-ATP], the Ki in series [7] was 27 ± 0.004 µM; in series [8] it was more than 600 µM; in series [10], 112.1 ± 0.05 µM. Further, the “metabolic stability towards ecto-nucleotide pyrophosphatases (E-NPP)” value in [9] is reported as “metabolically unstable”.

Take `Cc1nc(N=Nc2ccc(S(=O)(=O)O)cc2S(=O)(=O)O)c(COP(=O)(O)O)c(C=O)c1O` [PPADS, pyridoxalphosphate-6-azophenyl-2′,4′-disulfonic acid]: the Ki in [7] was 46 ± 0.01 µM; in series [8], 44.2 ± 0.03 µM; in series [10] it was 3 ± 0.001 µM; in series [14], 0.13 µM. The “P2Y6 inhib. at 100 μM” value in series [11] (100 μM) is 69%. In addition, in [12], the “P2Y2 Ki ± SEM [μM]” value was “inactive”. Further, the “P2Y4 inhib. at 100 μM” value in series [13] (100 μM) was 73%.

With `Nc1c(S(=O)(=O)O)cc(Nc2ccc(Nc3nc(Cl)nc(Nc4cccc(S(=O)(=O)O)c4)n3)c(S(=O)(=O)O)c2)c2c1C(=O)c1ccccc1C2=O` [RB2, reactive blue 2], the Ki in [15] was 0.4 µM; in [16] it was 1.3 µM; in series [11], 31 µM; in [12], 1 µM; in [17], 50 µM; in [13] (setting [19]), more than 100 µM. Further, the Ki in series [18] was 20 µM; in series [14], 2 µM.

As to `Cc1ccc(C(=O)Nc2ccc(S(=O)(=O)O)c3cc(S(=O)(=O)O)cc(S(=O)(=O)O)c23)cc1NC(=O)c1cccc(NC(=O)Nc2cccc(C(=O)Nc3cc(C(=O)Nc4ccc(S(=O)(=O)O)c5cc(S(=O)(=O)O)cc(S(=O)(=O)O)c45)ccc3C)c2)c1` [Suramin, suramin], the Ki was 10 µM in series [15]; 300 ± 0.1 µM in [7]; 65.4 ± 0.01 µM in series [8]; more than 100 µM in [11]; 12.7 ± 0.03 µM in series [10]; 50 µM in series [12]. In series [18], the inhibition constant Ki is 1.6 µM. For the same compound, the “P2Y4 Ki ± SEM [μM]” value in series [13] (setting [19]) was “inactive”.
